# “And” between values parts separate entries of the source, which are not always exact repeats. Equal entries are not always repeated. Where two headings read alike, the source gives them in different places. Non-standard residues stand in square brackets, D forms with d. Residues, ends and D or L forms follow the SMILES beside them.
# What was measured:
# MRSA USA 300 [1] = test: Time-kill assay; assay type: cell-based, Staphylococcus aureus
# Method: Time-kill assays were done in tubes (in 1.5 mL of LB) and antibiotics at the 1 ×, 2 ×, 4 × and 8 × MIC. Tubes were inoculated (5 × 10^6 CFU/mL) with MRSA USA 300 and K. pneumoniae ATCC 700603 and incubated at 37 °C under shaking. Serial dilutions of the cultures were plated at each desired time point (0, 1, 3, 6, and 24 h), using a multichannel pipette as follows: in line 1 of a 96-well plate, 100 µL of bacterial suspension was added, while 90 µL of 0.9% sterile saline per well was added to the other lines. At selected time points, 100 µL of bacterial suspension was transferred from the time-kill assay plate to the first line. The wells were further diluted 1 in 10 (0.9% saline) for the appropriate number of dilutions and 10 μL of each dilution was spotted in duplicate onto MH agar plates, then incubated overnight at 37°C. The colonies in each spot were counted and used to calculate the number of viable CFU/mL remaining in the original culture by considering the dilution factors.
# MRSA USA 300 [2] = test: microbe, parasite or virus in culture; assay type: cell-based, Staphylococcus aureus
# Method: MRSA USA 300 and K. pneumoniae ATCC 700603 were employed to assess the development of resistance. From inoculated microtiter panels, an aliquot of the well with the highest concentration permitting growth was taken and back diluted in fresh media to a turbidity of a 0.5 McFarland standard. This suspension was then further diluted and used to inoculate a fresh MIC panel resulting in a final concentration of 5 × 10^6 CFU/mL. Panels were incubated according to CLSI guidelines (M07, 11th edition, 2018), MICs were recorded and the next inoculum was prepared from the well containing the highest concentration of drug that allowed growth in identical fashion as described above.
# [3] = tested on: K. pneumoniae ATCC 700603; assay type: cell-based, Klebsiella pneumoniae
# Method: The stability of peptides in different media was assessed using the MIC assay described above. Here, the stability of HT2 and RI-HT2 in serum, salt, and different pH were analyzed using methods previously described with some modifications. For serum stability, a solution of 10% or 20% fetal bovine serum (FBS) was made by diluting fetal bovine serum with phosphate buffer saline (PBS). HT2 and RI-HT2 were added for a final concentration of 160 µg/mL of peptide in the FBS solution, and incubation 2 h. Suspension containing no peptide was considered the negative control. The MIC of HT2 and RI-HT2 against MRSA USA 300 and K. pneumoniae ATCC 700603 were measured. For the acid stability assays, the peptides were incubated with different pH values of PBS (pH = 5.5 or 6.4) at 37 °C. These peptide mixtures were then serially diluted in a 96-well plate for the evaluation of antimicrobial activity against bacterial strains. Similarly, for salt stability, the peptides were assessed for their antimicrobial activity against MRSA USA 300 and K. pneumoniae ATCC 700603 in the presence of 150 mM NaCl.
compound,measurement,setting,value
CC[C@@H](C)[C@@H](NC(=O)[C@@H](Cc1ccccc1)NC(=O)[C@@H](Cc1ccccc1)NC(=O)[C@@H](Cc1ccccc1)NC(=O)[C@H](N)Cc1ccccc1)C(=O)N[C@H](CCCNC(=N)N)C(=O)N[C@H](CCCNC(=N)N)C(=O)N[C@H](CC(C)C)C(=O)N[C@H](Cc1ccccc1)C(=O)N[C@H](CCCNC(=N)N)C(N)=O [RI-HT2] (H-[dF][dF][dF][dF][dI][dR][dR][dL][dF][dR]-NH2; N-terminus assumed),"viable count, time-kill","MRSA USA 300 [1]; 8 × MIC, 6 h",0 CFU/mL
same,"viable count, time-kill","MRSA USA 300 [1]; 8 × MIC, 24 h",0 CFU/mL
same,"viable count, time-kill","MRSA USA 300 [1]; MIC, 0 h",17000000 CFU/mL and 16000000 CFU/mL
same,"viable count, time-kill","MRSA USA 300 [1]; MIC, 1 h",4500000 CFU/mL and 3500000 CFU/mL and 3700000 CFU/mL
same,"viable count, time-kill","MRSA USA 300 [1]; MIC, 3 h",2300 CFU/mL and 1800 CFU/mL and 2200 CFU/mL
same,"viable count, time-kill","MRSA USA 300 [1]; MIC, 6 h",230000 CFU/mL and 380000 CFU/mL and 310000 CFU/mL
same,"viable count, time-kill","MRSA USA 300 [1]; MIC, 24 h",2000000000 CFU/mL and 3400000000 CFU/mL and 3000000000 CFU/mL
same,Concentration (MIC in drug resistance assay),"MRSA USA 300 [2]; MRSA USA 300, day 0",2 µg/mL
same,Concentration (MIC in drug resistance assay),"MRSA USA 300 [2]; MRSA USA 300, day 1",2 µg/mL
same,Concentration (MIC in drug resistance assay),"MRSA USA 300 [2]; MRSA USA 300, day 2",2 µg/mL
same,Concentration (MIC in drug resistance assay),"MRSA USA 300 [2]; MRSA USA 300, day 3",2 µg/mL
same,Concentration (MIC in drug resistance assay),"MRSA USA 300 [2]; MRSA USA 300, day 4",4 µg/mL
same,Concentration (MIC in drug resistance assay),"MRSA USA 300 [2]; MRSA USA 300, day 5",2 µg/mL
same,Concentration (MIC in drug resistance assay),"MRSA USA 300 [2]; MRSA USA 300, day 6",2 µg/mL
same,Concentration (MIC in drug resistance assay),"MRSA USA 300 [2]; MRSA USA 300, day 7",4 µg/mL
same,Concentration (MIC in drug resistance assay),"MRSA USA 300 [2]; MRSA USA 300, day 8",4 µg/mL
same,Concentration (MIC in drug resistance assay),"MRSA USA 300 [2]; MRSA USA 300, day 9",8 µg/mL
same,Concentration (MIC in drug resistance assay),"MRSA USA 300 [2]; MRSA USA 300, day 10",4 µg/mL
same,Concentration (MIC in drug resistance assay),"MRSA USA 300 [2]; MRSA USA 300, day 11",4 µg/mL
same,Concentration (MIC in drug resistance assay),"MRSA USA 300 [2]; MRSA USA 300, day 12",4 µg/mL
same,Concentration (MIC in drug resistance assay),"MRSA USA 300 [2]; MRSA USA 300, day 13",4 µg/mL
same,Concentration (MIC in drug resistance assay),"MRSA USA 300 [2]; MRSA USA 300, day 14",4 µg/mL
same,Concentration (MIC in drug resistance assay),"MRSA USA 300 [2]; MRSA USA 300, day 15",8 µg/mL
same,Concentration (MIC in drug resistance assay),"MRSA USA 300 [2]; MRSA USA 300, day 16",4 µg/mL
same,Concentration (MIC in drug resistance assay),"MRSA USA 300 [2]; MRSA USA 300, day 17",4 µg/mL
same,Concentration (MIC in drug resistance assay),"MRSA USA 300 [2]; MRSA USA 300, day 18",8 µg/mL
same,Concentration (MIC in drug resistance assay),"MRSA USA 300 [2]; MRSA USA 300, day 19",8 µg/mL
same,Concentration (MIC in drug resistance assay),"MRSA USA 300 [2]; MRSA USA 300, day 20",8 µg/mL
same,Concentration (MIC in drug resistance assay),"MRSA USA 300 [2]; MRSA USA 300, day 21",4 µg/mL
same,Concentration (MIC in drug resistance assay),"MRSA USA 300 [2]; MRSA USA 300, day 22",8 µg/mL
same,Concentration (MIC in drug resistance assay),"MRSA USA 300 [2]; MRSA USA 300, day 23",8 µg/mL
same,Concentration (MIC in drug resistance assay),"MRSA USA 300 [2]; MRSA USA 300, day 24",4 µg/mL
same,Concentration (MIC in drug resistance assay),"MRSA USA 300 [2]; MRSA USA 300, day 25",8 µg/mL
same,Concentration (MIC in drug resistance assay),"MRSA USA 300 [2]; MRSA USA 300, day 26",4 µg/mL
same,Concentration (MIC in drug resistance assay),"MRSA USA 300 [2]; MRSA USA 300, day 27",8 µg/mL
same,Concentration (MIC in drug resistance assay),"MRSA USA 300 [2]; MRSA USA 300, day 28",8 µg/mL
same,Concentration (MIC in drug resistance assay),"MRSA USA 300 [2]; MRSA USA 300, day 29",8 µg/mL
same,Concentration (MIC in drug resistance assay),"MRSA USA 300 [2]; MRSA USA 300, day 30",8 µg/mL
same,Concentration (MIC in drug resistance assay),"MRSA USA 300 [2]; MRSA USA 300, day 31",8 µg/mL
same,Concentration (MIC in drug resistance assay),"MRSA USA 300 [2]; MRSA USA 300, day 32",4 µg/mL
same,Concentration (MIC in drug resistance assay),"MRSA USA 300 [2]; MRSA USA 300, day 33",8 µg/mL
same,Concentration (MIC in drug resistance assay),"MRSA USA 300 [2]; MRSA USA 300, day 34",8 µg/mL
same,Concentration (MIC in drug resistance assay),"MRSA USA 300 [2]; MRSA USA 300, day 35",8 µg/mL
same,Concentration (MIC in drug resistance assay),"MRSA USA 300 [2]; MRSA USA 300, day 36",8 µg/mL
same,Concentration (MIC in drug resistance assay),"MRSA USA 300 [2]; MRSA USA 300, day 37",8 µg/mL
same,Concentration (MIC in drug resistance assay),"MRSA USA 300 [2]; MRSA USA 300, day 38",8 µg/mL
same,Concentration (MIC in drug resistance assay),"MRSA USA 300 [2]; MRSA USA 300, day 39",8 µg/mL
same,Concentration (MIC in drug resistance assay),"MRSA USA 300 [2]; MRSA USA 300, day 40",4 µg/mL
same,increase in MIC after 40 passages,MRSA USA 300 [2]; serial passage at sub-MIC,four-fold
same,MIC against K. pneumoniae ATCC 700603,[3]; 150 mM NaCl,12.5 µM
same,MIC against K. pneumoniae ATCC 700603,[3]; ATCC 700603,>100 µM
same,MIC against K. pneumoniae ATCC 700603,[3]; Normal medium,6.25 µM
same,MIC against K. pneumoniae ATCC 700603,[3]; pH 5.5,12.5 µM
same,MIC against K. pneumoniae ATCC 700603,[3]; pH 6.4,12.5 µM

# — PMC10657444, “Design and evaluation of tadpole-like conformational antimicrobial peptides” (Communications Biology, 2023)
